Laboratory results: patent US20240158355A1, “BET SUBFAMILY INHIBITORS AND METHODS USING SAME” (Baylor College of Medicine, priority 2021, published 2024)

Legend:
[1] = target: T1, BRDT-BD2 (Homo sapiens (Human), UniProt Q58F21); test: AlphaScreen bromodomain proximity assay (competition with biotinylated (+)-JQ1), BRDT-BD2; type: binding
[2] = target: BRDT-BD1 (Homo sapiens (Human), UniProt Q58F21); test: AlphaScreen bromodomain proximity assay (competition with biotinylated (+)-JQ1), BRDT-BD1; type: binding; settings: NE: no effect at 10 μM
[3] = target: His-BRDT-BD2 (Homo sapiens (Human), UniProt Q58F21); settings: 0 = theoretically present in the library but not detected in the sequencing data
[4] = Metabolic stability assay in mouse liver microsomes; type: in vitro ADME; settings: for half-life at 2 μM: 0.5 mg protein/mL, 37° C., read-out: MLM t1/2
Method: (§1) Compounds 3-10, 15, 17, and 20-22 (2.0 μM) were incubated in the mouse or human liver microsomes (0.5 mg protein/mL) at 37° C. […] The reaction mixtures were centrifuged at rcf 15,000 for 15 min. […] The column temperature was maintained at 40° C. […] Q Exactive MS was operated in positive or negative mode with electrospray ionization.

[5] = Metabolic stability assay in human liver microsomes; type: in vitro ADME; settings: for human microsomal stability: in words; for half-life at 2 μM: read-out: HLM t1/2
Method: as §1

[6] = target: BRD4-BD2 (Homo sapiens (Human), UniProt O60885); settings: cited from earlier work
[7] = system: mice; settings: cited from earlier work
[8] = mouse, in vivo; cited from earlier work
[9] = system: bromodomains; settings: BROMOscan competition binding
Method: (§2) Binding constants (Kds) were calculated with a standard dose-response curve using the Hill equation:
1+(KdHill Slope/DoseHill Slope)
The Hill Slope was set to −1.
(§3) Curves were fitted using a non-linear least square fit with the Levenberg-Marquardt algorithm.

[10] = target: T1, BRDT-BD2; settings: BromoKdELECT dose-response
Method: as §2
1+(KdHill Slope/DoseHill Slope)
The Hill Slope was set to −1.
as §3

[11] = system: BD2; settings: cited from earlier work
[12] = 2.0 μM, 0.5 mg protein/mL, 37° C.
[13] = data >60 min is an extrapolated estimate

CNC(=O)c1ccc(C(=O)Nc2cc(NC(=O)c3ccc4c(c3)c(-c3cc5ccccc5n3C)nn4C)ccc2C)cc1 [compound 8, N^1-Methyl-N^4-(2-methyl-5-(1-methyl-3-(1-methyl-1H-indol-2-yl)-1H-indazole-5-carboxamido)phenyl)terephthalamide]
IC50 [1]: 13 nM
IC50 [2]: > 10 µM
Count (observed molecule count in the DEC-Tec screen against BRDT-BD2) [3]: 846

CNC(=O)c1ccc(C(=O)Nc2cc(NC(=O)c3ccc4c(c3)c(-c3ccc(N)nc3)nn4C)ccc2C)cc1 [compound 10, N^1-(5-(3-(6-Aminopyridin-3-yl)-1-methyl-1H-indazole-5-carboxamido)-2-methylphenyl)-N^4-methylterephthalamide]
IC50 [1]: 17 nM
IC50 [2]: > 10 µM
mouse microsomal stability ([4]; in words): high metabolic stability
human microsomal stability [5]: high metabolic stability
Count (observed molecule count in the DEC-Tec screen against BRDT-BD2) [3]: 3

CCNC(=O)c1cc2c(-c3cc(C(C)(C)O)ccc3Oc3c(C)cc(F)cc3C)cn(C)c(=O)c2[nH]1 [ABBV-744]
selectivity for BRD4-BD2 [6]: 95-290 fold

Cc1sc2c(c1C)C(c1ccc(Cl)cc1)=N[C@@H](CC(=O)OC(C)(C)C)c1nnc(C)n1-2 [(+)-JQ1, tert-butyl (S)-2-(4-(4-chlorophenyl)-2,3,9-trimethyl-6H-thieno[3,2-f][1,2,4]triazolo[4,3-a][1,4]diazepin-6-yl)acetate]
contraceptive effect [7]: complete and reversible contraceptive effect
bioavailable across the blood-testis boundary [8]: 100%

CNC(=O)c1ccc(C(=O)Nc2cc(NC(=O)c3ccc4c(c3)c(-c3ccccc3C)nn4C)ccc2OC)cc1 [compound 6, N^1-(2-Methoxy-5-(1-methyl-3-(o-tolyl)-1H-indazole-5-carboxamido)phenyl)-N^4-methylterephthalamide]
IC50 [1]: 61 nM
IC50 [2]: 6.3 µM
half-life at 2 μM [4]: 40 min
half-life at 2 μM [5, 12]: 17 min
Count (observed molecule count in the DEC-Tec screen against BRDT-BD2) [3]: 0

CNC(=O)c1ccc(C(=O)Nc2cc(NC(=O)c3ccc4c(c3)c(-c3ccc(N)cc3C)nn4C)ccc2OC)cc1 [compound 4, N^1-(5-(3-(4-Amino-2-methylphenyl)-1-methyl-1H-indazole-5-carboxamido)-2-methoxyphenyl)-N^4-methylterephthalamide]
IC50 [1]: 12 nM
IC50 [2]: > 10 µM
half-life at 2 μM [4]: 14 min
half-life at 2 μM [5, 13]: 100 min
Count (observed molecule count in the DEC-Tec screen against BRDT-BD2) [3]: 838

CC(=O)Nc1cc(NC(=O)c2ccc3c(c2)c(-c2ccc(N)cc2C)nn3C)ccc1C [compound 20, N-(3-Acetamido-4-methylphenyl)-3-(4-amino-2-methylphenyl)-1-methyl-1H-indazole-5-carboxamide]
IC50 [1]: 8 nM
IC50 [2]: > 10 µM
binding selectivity across bromodomains [9]: potent and selective binding to only the second bromodomains within the BET subfamily
potency at binding BRDT-BD2 relative to (+)-JQ1 [10]: more than 20 fold

CC(=O)Nc1c(F)cc(C(=O)N[C@H]2CC[C@H](O)CC2)cc1O[C@@H](C)c1ccccc1 [GSK046]
selectivity for BD2 over BD1 [11]: > 300 fold

CNC(=O)c1ccc(C(=O)Nc2cc(NC(=O)c3ccc4c(c3)c(-c3ccncc3)nn4C)ccc2C)cc1 [compound 12, N^1-Methyl-N^4-(2-methyl-5-(1-methyl-3-(pyridin-4-yl)-1H-indazole-5-carboxamido)phenyl)terephthalamide]
IC50 [1]: 978 nM
IC50 [2]: > 10 µM
Count (observed molecule count in the DEC-Tec screen against BRDT-BD2) [3]: 0

CNC(=O)c1ccc(C(=O)Nc2cc(NC(=O)c3ccc4c(c3)c(-c3cc5ccccc5n3C)nn4C)ccc2OC)cc1 [compound 3, N^1-(2-Methoxy-5-(1-methyl-3-(1-methyl-1H-indol-2-yl)-1H-indazole-5-carboxamido)phenyl)-N^4-methylterephthalamide]
IC50 [1]: 22 nM
IC50 [2]: > 10 µM
half-life at 2 μM [4]: 31 min
half-life at 2 μM [5, 13]: 87 min
Count (observed molecule count in the DEC-Tec screen against BRDT-BD2) [3]: 1039

CNC(=O)c1ccc(C(=O)Nc2cc(NC(=O)c3ccc4c(c3)c(-c3ccc(N)cc3)nn4C)ccc2OC)cc1 [compound 7, N^1-(5-(3-(4-Aminophenyl)-1-methyl-1H-indazole-5-carboxamido)-2-methoxyphenyl)-N^4-methylterephthalamide]
IC50 [1]: 15 nM
IC50 [2]: > 10 µM
half-life at 2 μM [4]: 51 min
half-life at 2 μM [5, 13]: 250 min
Count (observed molecule count in the DEC-Tec screen against BRDT-BD2) [3]: 63

CNC(=O)c1ccc(C(=O)Nc2cc(NC(=O)c3ccc4c(c3)c(-c3ccc(N)cc3C)nn4C)ccc2C)cc1 [compound 9, N^1-(5-(3-(4-Amino-2-methylphenyl)-1-methyl-1H-indazole-5-carboxamido)-2-methylphenyl)-N^4-methylterephthalamide]
human microsomal stability [5]: high metabolic stability

CNC(=O)c1ccc(C(=O)Nc2cc(NC(=O)c3ccc4c(c3)c(-c3ccc(C)cc3C)nn4C)ccc2OC)cc1 [compound 5, N^1-(5-(3-(2,4-Dimethylphenyl)-1-methyl-1H-indazole-5-carboxamido)-2-methoxyphenyl)-N^4-methylterephthalamide]
IC50 [1]: 26 nM
IC50 [2]: > 10 µM
half-life at 2 μM [4]: 20 min
half-life at 2 μM [5, 12]: 18 min
Count (observed molecule count in the DEC-Tec screen against BRDT-BD2) [3]: 515
